Measurements published in patent publication US20050228180A1, “Alpha, omega-dicarboximide derivatives as useful uro-selective a1a adrenoceptor blockers” (priority 2002, published 2005).
Structures can show the parent of a compound that is named as a salt.

Legend:
α1A adrenoceptor = biological target: T1, α1A adrenoceptor (Rattus norvegicus, UniProt P43140); test: Radioligand binding, [3H] prazosin displacement, rat submaxillary membranes; settings: for Ki: [3H] prazosin displacement, rat submaxillary membranes, read-out: Affinity (Ki) α1A (Rat Submaxillary); for α1B/α1A: ratio of binding affinities, rat liver / rat submaxillary
T1 construct: from tissue; host or cells: rat submaxillary gland membranes
T1 sequence (P43140 1-466): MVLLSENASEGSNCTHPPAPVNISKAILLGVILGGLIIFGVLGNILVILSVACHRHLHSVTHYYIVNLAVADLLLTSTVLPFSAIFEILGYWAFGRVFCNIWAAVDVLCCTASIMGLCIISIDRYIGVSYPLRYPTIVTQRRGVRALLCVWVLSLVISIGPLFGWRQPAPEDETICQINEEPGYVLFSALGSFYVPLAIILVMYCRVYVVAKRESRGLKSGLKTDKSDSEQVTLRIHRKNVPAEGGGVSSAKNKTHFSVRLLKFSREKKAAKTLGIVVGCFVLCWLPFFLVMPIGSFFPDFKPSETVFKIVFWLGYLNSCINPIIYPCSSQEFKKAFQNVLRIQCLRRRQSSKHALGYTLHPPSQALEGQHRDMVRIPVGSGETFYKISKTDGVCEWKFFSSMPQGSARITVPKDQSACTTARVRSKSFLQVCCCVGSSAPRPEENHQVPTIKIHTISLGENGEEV
Procedure, shortened: (§1)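 Rat membranes (submaxillary for α1A, liver for α1B; 150-250 μg protein) incubated with [3H]prazosin and compound in Tris 50 mM/EDTA 5 mM pH 7.4, 1 h at 24-25° C. Nonspecific binding with 300 nM prazosin; filtration, counting; Ki via Cheng–Prusoff.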

α1D adrenoceptor (aorta) = biological target: T2, α1D adrenoceptor (aorta) (Rattus norvegicus, UniProt P23944); test: In vitro functional assay, isolated aorta, norepinephrine contraction; format: cell-based; settings: for Kb: read-out: α Adrenoceptor Subtype (pKB) α1D (converted)
T2 construct: Isolated tissues were mounted in organ bath containing Krebs Henseleit buffer; from tissue; host or cells: isolated rat aorta
T2 sequence (P23944 1-561): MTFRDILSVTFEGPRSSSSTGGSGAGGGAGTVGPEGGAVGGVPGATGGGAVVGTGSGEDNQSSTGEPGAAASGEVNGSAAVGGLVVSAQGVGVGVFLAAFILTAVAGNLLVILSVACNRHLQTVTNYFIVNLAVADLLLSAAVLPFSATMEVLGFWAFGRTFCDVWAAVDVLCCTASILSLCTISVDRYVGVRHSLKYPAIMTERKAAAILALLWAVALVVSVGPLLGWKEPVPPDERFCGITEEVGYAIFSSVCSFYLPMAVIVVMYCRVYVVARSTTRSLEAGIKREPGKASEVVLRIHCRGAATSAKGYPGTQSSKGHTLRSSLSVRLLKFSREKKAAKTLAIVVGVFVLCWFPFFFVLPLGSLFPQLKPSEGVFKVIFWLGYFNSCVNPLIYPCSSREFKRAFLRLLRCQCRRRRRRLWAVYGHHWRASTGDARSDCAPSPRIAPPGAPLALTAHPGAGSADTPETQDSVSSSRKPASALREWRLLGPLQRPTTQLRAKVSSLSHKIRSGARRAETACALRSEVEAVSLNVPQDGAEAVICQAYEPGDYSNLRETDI
From the text: (§2) In order to study selectivity of action of these compounds towards different a-adrenoceptor subtypes, the ability of these compounds to antagonise (α1D) prostate (α1A) and spleen (α1B) was studied. Aorta and spleen tissues were isolated from urethane anaesthetized (1.5 g/kg) male wister rats. Isolated tissues were mounted in organ bath containing Krebs Henseleit buffer of the following composition (mM): NaCl 118; KCl 4.7; CaCl2 2.5; MgSO4 7H2O 1.2; NaHCO3 25; KH2PO4 1.2; glucose 11.5. Buffer was maintained at 37° C. and aereated with a mixture of 95% O2 and 5% CO2. A resting tension of 2 g (aorta) or 1 g (spleen and prostate) was applied to tissues. Contractile response was monitored using a force displacement transducer and recorded on chart recorders. Tissues were allowed to equilibrate for 2 hours. At the end of equilibration period, concentration response curves to norepinephrine (aorta) and phenylepinephrine (spleen and prostate) were obtained in the absence and presence of tested compound (at concentration of […]). Antagonist affinity was calculated and expressed as pKB values in Table II.

[1] = biological target: T3, α1A adrenoceptor (prostate) (Rattus norvegicus, UniProt P43140); test: In vitro functional assay, isolated prostate, phenylepinephrine contraction; format: cell-based; settings: for Selectivity α1B/α1A / Selectivity α1D/α1A: functional, from pKB; for Kb: read-out: α Adrenoceptor Subtype (pKB) α1A (converted)
T3 construct: from tissue; host or cells: isolated prostate tissue
T3 sequence (P43140 1-466): T1 sequence (P43140 1-466)
From the text: as §2

α1B adrenoceptor = biological target: T4, α1B adrenoceptor (Rattus norvegicus, UniProt P15823); test: Radioligand binding, [3H] prazosin displacement, rat liver membranes; settings: read-out: Affinity (Ki) α1B (Rat Liver)
T4 construct: from tissue; host or cells: rat liver membranes
T4 sequence (P15823 1-515): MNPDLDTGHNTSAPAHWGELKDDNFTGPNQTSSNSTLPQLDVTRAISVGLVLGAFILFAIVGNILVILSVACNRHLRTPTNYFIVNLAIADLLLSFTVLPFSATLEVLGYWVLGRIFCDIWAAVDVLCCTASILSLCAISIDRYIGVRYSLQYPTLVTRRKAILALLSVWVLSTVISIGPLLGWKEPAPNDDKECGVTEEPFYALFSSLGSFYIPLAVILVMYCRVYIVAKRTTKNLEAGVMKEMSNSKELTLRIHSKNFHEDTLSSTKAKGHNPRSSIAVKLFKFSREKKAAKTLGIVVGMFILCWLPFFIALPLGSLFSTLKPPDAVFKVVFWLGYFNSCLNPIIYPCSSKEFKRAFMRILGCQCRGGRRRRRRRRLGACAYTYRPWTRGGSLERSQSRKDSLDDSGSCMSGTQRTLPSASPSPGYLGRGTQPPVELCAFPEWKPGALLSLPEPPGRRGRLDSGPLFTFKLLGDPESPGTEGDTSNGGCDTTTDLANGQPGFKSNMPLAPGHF
Procedure, shortened: as §1

[2] = biological target: T5, α1B adrenoceptor (spleen) (Rattus norvegicus, UniProt P15823); test: In vitro functional assay, isolated spleen, phenylepinephrine contraction; format: cell-based; settings: for Kb: read-out: α Adrenoceptor Subtype (pKB) α1B (converted)
T5 construct: Isolated tissues were mounted in organ bath containing Krebs Henseleit buffer; from tissue; host or cells: isolated rat spleen
T5 sequence (P15823 1-515): T4 sequence (P15823 1-515)
From the text: as §2

[3] = rat prostate, phenylepinephrine

Row | Ki (α1A adrenoceptor) [nM] | Kb (α1D adrenoceptor (aorta)) [nM] | Selectivity α1B/α1A [1] | Selectivity α1D/α1A [1] | Kb [1, 3] [nM] | Ki (α1B adrenoceptor) [nM] | Kb [2] [nM] | α1B/α1A (α1A adrenoceptor) | Compound | α Adrenoceptor Subtype (pKB) α1D (α1D adrenoceptor (aorta)) | α Adrenoceptor Subtype (pKB) α1A [1, 3] | α Adrenoceptor Subtype (pKB) α1B [2]
1 | > 1000 | 58.9 | 13 | 40 | 1.48 | > 1000 | 18.6 |  | CCOc1ccccc1[N+]1([O-])CC[N+]([O-])(CCCN2C(=O)C3CC=CCC3C2=O)CC1 (centres unmarked) [Compound No. 10, 2-[3-{4-(2-Ethoxyphenyl)piperazin-1-yl, 1,4-N,N-dioxide}propyl]-3a,4,7,7a-tetrahydro-1H-isoindole-1,3(2H)-dione] |  |  | 
2 | 6.4 | 3.72 | 0.1 | 0.5 | 7.24 | 191 | 0.759 | 30 | CCOc1ccccc1N1CCN(CC(O)CN2C(=O)C3CC=CCC3C2=O)CC1 (centres unmarked) [Compound No. 11, 2-[3-{4-(2-Ethoxyphenyl)piperazin-1-yl}-2-hydroxypropyl]-3a,4,7,7a-tetrahydro-1H-isoindole-1,3-(2H)-dione hydrochloride] |  |  | 
3 | 1.7 | 6.92 | 60 | 4.2 | 1.66 | 118 | 100 | 69 | CCOc1ccccc1N1CCN(CCCN2C(=O)C3CC(O)C(O)CC3C2=O)CC1 (centres unmarked) [Compound No. 12, 2-[3-{4-(2-Ethoxyphenyl)piperazin-1-yl}propyl]-5,6-dihydroxy-3a,4,5,6,7,7a-hexahydro-1H-isoindole-1,3(2H)-dione] |  |  | 
4 | 0.36 | 2.29 | 17 | 0.7 | 3.24 | 85 | 55 | 236 | CC(C)Oc1ccccc1N1CCN(CCCN2C(=O)C3CC(O)C(O)CC3C2=O)CC1 (centres unmarked) [Compound No. 13, 2-[3-{4-(2-Isopropoxyphenyl)piperazin-1-yl}propyl]-5,6-dihydroxy-3a,4,5,6,7,7a-hexahydro-1H-isoindole-1,3(2H)-dione] |  |  | 
5 | 0.23 | 2.69 | 87 | 3.4 | 0.794 | 104 | 69.2 | 452 | CC(C)Oc1ccccc1N1CCN(CCCN2C(=O)C3CC4OC4CC3C2=O)CC1 (centres unmarked) [Compound No. 19, 2-[3-{4-(2-Isopropoxyphenyl)piperazin-1-yl}propyl]-5,6-epoxy-3a,4,5,6,7,7a-hexahydro-1H-isoindole-1,3(2H)-dione] |  |  | 
6 | 0.28 | 1.07 | 240 | 2.5 | 0.427 | 92 | 102 | 328 | CC(C)Oc1ccccc1N1CCN(CCCN2C(=O)C3CCC(O)CC3C2=O)CC1 (centres unmarked) [Compound No. 20, 2-[3-{4-(2-Isopropoxyphenyl)piperazin-1-yl}propyl]-5-hydroxy-3a,4,5,6,7,7a-hexahydro-1H-isoindole-1,3(2H)-dione] |  |  | 
7 | 3.4 | 24.5 | 15 | 5.24 | 4.68 | 643 | 70.8 | 189 | CC(C)Oc1ccc(O)cc1N1CCN(CCCN2C(=O)C3CC=CCC3C2=O)CC1.Cl (centres unmarked) [Compound No. 21, 2-[3-{4-(2-Isopropoxy-5-hydroxyphenyl)piperazin-1-yl}propyl]-3a,4,7,7a-tetrahydro-1H-isoindole-1,3(2H)-dione hydrochloride] |  |  | 
8 | 0.86 | 4.27 | 22 | 0.93 | 4.57 | 173 | 100 | 201 | CC(C)Oc1cc([N+](=O)[O-])ccc1N1CCN(CCCN2C(=O)C3CC=CCC3C2=O)CC1 (centres unmarked) [Compound No. 25, 2-[3-{4-(2-Isopropoxy-4-nitrophenyl)piperazin-1-yllpropyl]-3a,4,7,7a-tetrahydro-1H-isoindole-1,3(2H)-dione hydrochloride] |  |  | 
9 | 0.24 | 1.41 | 45 | 1.4 | 0.977 | 41 | 43.7 | 171 | CC(C)Oc1ccccc1N1CCN(CCCN2C(=O)C3CC(O)C(Cl)CC3C2=O)CC1.Cl (centres unmarked) [Compound No. 28, 2-[3-{4-(2-Isopropoxyphenyl)piperazin-1-yl}propyl]-5-chloro-6-hydroxy-3a,4,5,6,7,7a-hexahydro-1H-isoindole-1,3(2H)-dione hydrochloride] |  |  | 
10 | 1.2 | 6.46 |  | 18 | 0.363 | 142 |  | 118 | CC(C)Oc1ccccc1N1CCN(CCCN2C(=O)C3CCCC(O)C3C2=O)CC1.Cl (centres unmarked) [Compound No. 60, 2-[3-{4-(2-Isopropoxyphenyl)piperazin-1-yl}-propyl]4-hydroxy-3a,4,5,6,7,7a-hexahydro-1H-isoindole-1,3(2H)-dione hydrochloride] |  |  | 
11 | 38 | 3.72 |  | 0.56 | 6.61 | 263 |  | 7 | COc1ccccc1N1CCN(CC(O)CN2C(=O)C3CC=CCC3C2=O)CC1.Cl (centres unmarked) [compound 06, 2-[3-{4-(2-Methoxyphenyl)piperazin-1-yl}-2-hydroxypropyl]-3a,4,7,7a-tetrahydro-1H-isoindole-1,3(2H)-dione hydrochloride] |  |  | 

Row | Compound | Ki (α1A adrenoceptor) [nM] | Kb (α1D adrenoceptor (aorta)) [nM] | Selectivity α1B/α1A [1] | Selectivity α1D/α1A [1] | Kb [1, 3] [nM] | Ki (α1B adrenoceptor) [nM] | Kb [2] [nM] | α1B/α1A (α1A adrenoceptor) | α Adrenoceptor Subtype (pKB) α1D (α1D adrenoceptor (aorta)) | α Adrenoceptor Subtype (pKB) α1A [1, 3] | α Adrenoceptor Subtype (pKB) α1B [2]
12 | CCOc1ccccc1N1CCN(CCCN2C(=O)C3CC(O)C(Cl)CC3C2=O)CC1.Cl (centres unmarked) [Compound No. 17] |  |  | 347 | 3.9 |  |  |  | 50 | 9.07 | 9.54 | 7
